According to PMC10209615, “Pharmacological inhibition of LSD1 suppresses growth of hepatocellular carcinoma by inducing GADD45B” (MedComm, 2023):

Columns and labels:
[1] = molecular target: T1, ATM (Homo sapiens, UniProt Q13315); assay: Kinase activity detection (Eurofins); assay type: biochemical
T1 construct: purchased Eurofins Pharma Discovery Services
Description: (§1) The activity of ZY0511 against 104 cancer‐related kinases was carried out by Eurofins Pharma Discovery Services (Celle Lévescault, France).

[2] = molecular target: T2, ATR/ATRIP (Homo sapiens, UniProt Q13535); assay: Kinase activity detection (Eurofins); assay type: biochemical
T2 construct: purchased Eurofins Pharma Discovery Services
Description: as §1

[3] = molecular target: T3, Abl (Homo sapiens, UniProt P00519); assay: Kinase activity detection (Eurofins); assay type: biochemical; details: ZY0511 1 µM, read-out: Inhibition rate
T3 construct: purchased Eurofins Pharma Discovery Services
Description: as §1

[4] = molecular target: T4, Aurora-A (Homo sapiens, UniProt O14965); assay: Kinase activity detection (Eurofins); assay type: biochemical; details: ZY0511 1 µM, read-out: Inhibition rate
T4 construct: purchased Eurofins Pharma Discovery Services (KinaseProfiler)
Description: as §1

[5] = molecular target: T5, Axl (Homo sapiens, UniProt P30530); assay: Kinase activity detection (Eurofins); assay type: biochemical; details: ZY0511 1 µM, read-out: Activation rate
T5 construct: purchased Eurofins Pharma Discovery Services (KinaseProfiler)
Description: as §1

[6] = molecular target: T6, Blk (Homo sapiens, UniProt P51451); assay: Kinase activity detection (Eurofins); assay type: biochemical; details: ZY0511 1 µM, read-out: Inhibition rate
T6 construct: purchased Eurofins Pharma Discovery Services (KinaseProfiler)
Description: as §1

[7] = molecular target: T7, CDK1/CyclinB (Homo sapiens, UniProt P06493); assay: Kinase activity detection (Eurofins); assay type: biochemical; details: ZY0511 1 µM, read-out: Activation rate
T7 construct: purchased Eurofins Pharma Discovery Services (KinaseProfiler)
Description: as §1

[8] = molecular target: T8, CDK2/cyclinA (Homo sapiens, UniProt P24941); assay: Kinase activity detection (Eurofins); assay type: biochemical; details: ZY0511 1 µM, read-out: Inhibition rate
T8 construct: purchased Eurofins Pharma Discovery Services
Description: as §1

[9] = molecular target: T9, CK1γ2 (Homo sapiens, UniProt P78368); assay: Kinase activity detection (Eurofins); assay type: biochemical; details: ZY0511 1 µM, read-out: Inhibition rate
T9 construct: purchased Eurofins Pharma Discovery Services
Description: as §1

[10] = molecular target: T10, CK1γ3 (Homo sapiens, UniProt Q9Y6M4); assay: Kinase activity detection (Eurofins); assay type: biochemical; details: ZY0511 1 µM, read-out: Inhibition rate
T10 construct: purchased Eurofins Pharma Discovery Services (KinaseProfiler)
Description: as §1

[11] = molecular target: T11, DNA-PK (Homo sapiens, UniProt P78527); assay: Kinase activity detection (Eurofins); assay type: biochemical
T11 construct: purchased Eurofins Pharma Discovery Services
Description: as §1

[12] = molecular target: T12, DYRK2 (Homo sapiens, UniProt Q92630); assay: Kinase activity detection (Eurofins); assay type: biochemical; details: ZY0511 1 µM, read-out: Inhibition rate
T12 construct: purchased Eurofins Pharma Discovery Services (KinaseProfiler)
Description: as §1

[13] = molecular target: T13, EGFR (T790M) (Homo sapiens, UniProt P00533, T790M); assay: Kinase activity detection (Eurofins); assay type: biochemical; details: ZY0511 1 µM
T13 construct: purchased Eurofins Pharma Discovery Services (KinaseProfiler)
Description: as §1

[14] = molecular target: T14, EphA7 (Rattus norvegicus, UniProt P54759); assay: Kinase activity detection (Eurofins); assay type: biochemical; details: ZY0511 1 µM, read-out: Inhibition rate
T14 construct: purchased Eurofins Pharma Discovery Services
Description: as §1

[15] = molecular target: T15, EphB4 (Homo sapiens, UniProt P54760); assay: Kinase activity detection (Eurofins); assay type: biochemical; details: ZY0511 1 µM, read-out: Activation rate
T15 construct: purchased Eurofins Pharma Discovery Services (KinaseProfiler)
Description: as §1

[16] = molecular target: T16, Fer (Homo sapiens, UniProt P16591); assay: Kinase activity detection (Eurofins); assay type: biochemical; details: ZY0511 1 µM, read-out: Inhibition rate
T16 construct: purchased Eurofins Pharma Discovery Services (KinaseProfiler)
Description: as §1

[17] = molecular target: T17, Flt3 (Homo sapiens, UniProt P36888); assay: Kinase activity detection (Eurofins); assay type: biochemical; details: ZY0511 1 µM, read-out: Inhibition rate
T17 construct: purchased Eurofins Pharma Discovery Services (KinaseProfiler)
Description: as §1

[18] = molecular target: T18, Flt4 (Homo sapiens, UniProt P35916); assay: Kinase activity detection (Eurofins); assay type: biochemical
T18 construct: purchased Eurofins Pharma Discovery Services
Description: as §1

[19] = molecular target: T19, IKKε (Homo sapiens, UniProt Q14164); assay: Kinase activity detection (Eurofins); assay type: biochemical; details: ZY0511 1 µM, read-out: Activation rate
T19 construct: purchased Eurofins Pharma Discovery Services (KinaseProfiler)
Description: as §1

[20] = molecular target: T20, MEK1 (Homo sapiens, UniProt Q02750); assay: Kinase activity detection (Eurofins); assay type: biochemical; details: ZY0511 1 µM, read-out: Inhibition rate
T20 construct: purchased Eurofins Pharma Discovery Services (KinaseProfiler)
Description: as §1

[21] = molecular target: T21, Mer (Homo sapiens, UniProt Q12866); assay: Kinase activity detection (Eurofins); assay type: biochemical; details: ZY0511 1 µM, read-out: Activation rate
T21 construct: purchased Eurofins Pharma Discovery Services (KinaseProfiler)
Description: as §1

[22] = molecular target: T22, PDGFRα (Homo sapiens, UniProt P16234); assay: Kinase activity detection (Eurofins); assay type: biochemical; details: ZY0511 1 µM, read-out: Activation rate
T22 construct: purchased Eurofins Pharma Discovery Services (KinaseProfiler)
Description: as §1

[23] = molecular target: T23, PI3 Kinase (p110α (E542K)/p85α) (Homo sapiens, UniProt P42336, E542K); assay: Kinase activity detection (Eurofins); assay type: biochemical; details: ZY0511 1 µM, read-out: Inhibition rate
T23 construct: purchased Eurofins Pharma Discovery Services
Description: as §1

[24] = molecular target: T24, PI3 Kinase (p110α/p85α) (Homo sapiens, UniProt P42336); assay: Kinase activity detection (Eurofins); assay type: biochemical; details: ZY0511 1 µM, read-out: Inhibition rate
T24 construct: purchased Eurofins Pharma Discovery Services (KinaseProfiler)
Description: as §1

[25] = molecular target: T25, PKBα (Homo sapiens, UniProt P31749); assay: Kinase activity detection (Eurofins); assay type: biochemical; details: ZY0511 1 µM, read-out: Inhibition rate
T25 construct: purchased Eurofins Pharma Discovery Services (KinaseProfiler)
Description: as §1

[26] = molecular target: T26, PKCε (Homo sapiens, UniProt Q02156); assay: Kinase activity detection (Eurofins); assay type: biochemical; details: ZY0511 1 µM, read-out: Inhibition rate
T26 construct: purchased Eurofins Pharma Discovery Services (KinaseProfiler)
Description: as §1

[27] = molecular target: T27, PKCη (Homo sapiens, UniProt P24723); assay: Kinase activity detection (Eurofins); assay type: biochemical; details: ZY0511 1 µM, read-out: Activation rate
T27 construct: purchased Eurofins Pharma Discovery Services (KinaseProfiler)
Description: as §1

[28] = molecular target: T28, PKCθ (Homo sapiens, UniProt Q04759); assay: Kinase activity detection (Eurofins); assay type: biochemical; details: ZY0511 1 µM, read-out: Inhibition rate
T28 construct: purchased Eurofins Pharma Discovery Services
Description: as §1

[29] = molecular target: T29, Pim-1 (Homo sapiens, UniProt P11309); assay: Kinase activity detection (Eurofins); assay type: biochemical; details: ZY0511 1 µM, read-out: Inhibition rate
T29 construct: purchased Eurofins Pharma Discovery Services (KinaseProfiler)
Description: as §1

[30] = molecular target: T30, Snk (Homo sapiens, UniProt Q9NYY3); assay: Kinase activity detection (Eurofins); assay type: biochemical; details: ZY0511 1 µM, read-out: Inhibition rate
T30 construct: purchased Eurofins Pharma Discovery Services (KinaseProfiler)
Description: as §1

[31] = molecular target: T31, TrkA (Homo sapiens, UniProt P04629); assay: Kinase activity detection (Eurofins); assay type: biochemical; details: ZY0511 1 µM, read-out: Activation rate
T31 construct: purchased Eurofins Pharma Discovery Services (KinaseProfiler)
Description: as §1

[32] = molecular target: T32, Wee1 (Homo sapiens, UniProt P30291); assay: Kinase activity detection (Eurofins); assay type: biochemical; details: ZY0511 1 µM, read-out: Activation rate
T32 construct: purchased Eurofins Pharma Discovery Services (KinaseProfiler)
Description: as §1

[33] = molecular target: T33, c-RAF (Homo sapiens, UniProt P04049); assay: Kinase activity detection (Eurofins); assay type: biochemical; details: ZY0511 1 µM, read-out: Inhibition rate
T33 construct: purchased Eurofins Pharma Discovery Services (KinaseProfiler)
Description: as §1

[34] = molecular target: T34, cSRC (Homo sapiens, UniProt P12931); assay: Kinase activity detection (Eurofins); assay type: biochemical; details: ZY0511 1 µM, read-out: Activation rate
T34 construct: purchased Eurofins Pharma Discovery Services (KinaseProfiler)
Description: as §1

[35] = molecular target: T35, p70S6K (Homo sapiens, UniProt P23443); assay: Kinase activity detection (Eurofins); assay type: biochemical; details: ZY0511 1 µM, read-out: Inhibition rate
T35 construct: purchased Eurofins Pharma Discovery Services
Description: as §1

[36] = Acute toxicity assay
[37] = test system: Hep3B; assay: EdU incorporation assay; details: 96 h
[38] = ZY0511 1 µM, read-out: Inhibition rate

T18 sequence (P35916 25-1363, species assumed): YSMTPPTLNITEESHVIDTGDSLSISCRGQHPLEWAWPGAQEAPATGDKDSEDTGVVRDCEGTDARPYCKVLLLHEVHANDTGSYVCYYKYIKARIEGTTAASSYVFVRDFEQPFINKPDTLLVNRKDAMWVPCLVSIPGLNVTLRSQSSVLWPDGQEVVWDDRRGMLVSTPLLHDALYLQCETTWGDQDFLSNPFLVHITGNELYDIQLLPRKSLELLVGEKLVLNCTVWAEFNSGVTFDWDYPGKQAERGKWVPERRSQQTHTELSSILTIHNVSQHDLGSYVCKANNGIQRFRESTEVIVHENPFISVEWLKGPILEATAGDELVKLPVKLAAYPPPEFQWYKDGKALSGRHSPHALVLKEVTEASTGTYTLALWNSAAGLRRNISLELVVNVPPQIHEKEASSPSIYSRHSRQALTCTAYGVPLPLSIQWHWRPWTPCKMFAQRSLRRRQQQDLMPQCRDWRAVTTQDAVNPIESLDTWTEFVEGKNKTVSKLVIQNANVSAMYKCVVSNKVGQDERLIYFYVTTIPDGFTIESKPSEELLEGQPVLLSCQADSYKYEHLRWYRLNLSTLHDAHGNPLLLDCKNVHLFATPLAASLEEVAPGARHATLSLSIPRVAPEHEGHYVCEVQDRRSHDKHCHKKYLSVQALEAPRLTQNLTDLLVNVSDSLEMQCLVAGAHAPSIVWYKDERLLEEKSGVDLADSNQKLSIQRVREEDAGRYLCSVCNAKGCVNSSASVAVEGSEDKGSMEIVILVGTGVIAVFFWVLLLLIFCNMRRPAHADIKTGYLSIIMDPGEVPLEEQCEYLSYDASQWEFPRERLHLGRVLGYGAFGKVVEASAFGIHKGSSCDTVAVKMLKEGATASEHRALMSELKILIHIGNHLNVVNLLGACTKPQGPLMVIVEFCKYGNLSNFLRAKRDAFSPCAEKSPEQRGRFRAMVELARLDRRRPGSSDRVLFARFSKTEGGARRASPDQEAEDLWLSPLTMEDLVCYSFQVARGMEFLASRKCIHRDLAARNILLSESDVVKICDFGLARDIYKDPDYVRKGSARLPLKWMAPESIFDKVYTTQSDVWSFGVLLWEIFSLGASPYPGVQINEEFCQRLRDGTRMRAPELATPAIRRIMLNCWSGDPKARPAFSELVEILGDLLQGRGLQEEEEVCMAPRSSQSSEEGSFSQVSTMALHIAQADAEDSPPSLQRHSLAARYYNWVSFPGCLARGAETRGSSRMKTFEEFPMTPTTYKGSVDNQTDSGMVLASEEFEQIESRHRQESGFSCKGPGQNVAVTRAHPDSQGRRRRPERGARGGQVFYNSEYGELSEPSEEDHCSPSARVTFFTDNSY
T2 sequence (Q13535 whole entry): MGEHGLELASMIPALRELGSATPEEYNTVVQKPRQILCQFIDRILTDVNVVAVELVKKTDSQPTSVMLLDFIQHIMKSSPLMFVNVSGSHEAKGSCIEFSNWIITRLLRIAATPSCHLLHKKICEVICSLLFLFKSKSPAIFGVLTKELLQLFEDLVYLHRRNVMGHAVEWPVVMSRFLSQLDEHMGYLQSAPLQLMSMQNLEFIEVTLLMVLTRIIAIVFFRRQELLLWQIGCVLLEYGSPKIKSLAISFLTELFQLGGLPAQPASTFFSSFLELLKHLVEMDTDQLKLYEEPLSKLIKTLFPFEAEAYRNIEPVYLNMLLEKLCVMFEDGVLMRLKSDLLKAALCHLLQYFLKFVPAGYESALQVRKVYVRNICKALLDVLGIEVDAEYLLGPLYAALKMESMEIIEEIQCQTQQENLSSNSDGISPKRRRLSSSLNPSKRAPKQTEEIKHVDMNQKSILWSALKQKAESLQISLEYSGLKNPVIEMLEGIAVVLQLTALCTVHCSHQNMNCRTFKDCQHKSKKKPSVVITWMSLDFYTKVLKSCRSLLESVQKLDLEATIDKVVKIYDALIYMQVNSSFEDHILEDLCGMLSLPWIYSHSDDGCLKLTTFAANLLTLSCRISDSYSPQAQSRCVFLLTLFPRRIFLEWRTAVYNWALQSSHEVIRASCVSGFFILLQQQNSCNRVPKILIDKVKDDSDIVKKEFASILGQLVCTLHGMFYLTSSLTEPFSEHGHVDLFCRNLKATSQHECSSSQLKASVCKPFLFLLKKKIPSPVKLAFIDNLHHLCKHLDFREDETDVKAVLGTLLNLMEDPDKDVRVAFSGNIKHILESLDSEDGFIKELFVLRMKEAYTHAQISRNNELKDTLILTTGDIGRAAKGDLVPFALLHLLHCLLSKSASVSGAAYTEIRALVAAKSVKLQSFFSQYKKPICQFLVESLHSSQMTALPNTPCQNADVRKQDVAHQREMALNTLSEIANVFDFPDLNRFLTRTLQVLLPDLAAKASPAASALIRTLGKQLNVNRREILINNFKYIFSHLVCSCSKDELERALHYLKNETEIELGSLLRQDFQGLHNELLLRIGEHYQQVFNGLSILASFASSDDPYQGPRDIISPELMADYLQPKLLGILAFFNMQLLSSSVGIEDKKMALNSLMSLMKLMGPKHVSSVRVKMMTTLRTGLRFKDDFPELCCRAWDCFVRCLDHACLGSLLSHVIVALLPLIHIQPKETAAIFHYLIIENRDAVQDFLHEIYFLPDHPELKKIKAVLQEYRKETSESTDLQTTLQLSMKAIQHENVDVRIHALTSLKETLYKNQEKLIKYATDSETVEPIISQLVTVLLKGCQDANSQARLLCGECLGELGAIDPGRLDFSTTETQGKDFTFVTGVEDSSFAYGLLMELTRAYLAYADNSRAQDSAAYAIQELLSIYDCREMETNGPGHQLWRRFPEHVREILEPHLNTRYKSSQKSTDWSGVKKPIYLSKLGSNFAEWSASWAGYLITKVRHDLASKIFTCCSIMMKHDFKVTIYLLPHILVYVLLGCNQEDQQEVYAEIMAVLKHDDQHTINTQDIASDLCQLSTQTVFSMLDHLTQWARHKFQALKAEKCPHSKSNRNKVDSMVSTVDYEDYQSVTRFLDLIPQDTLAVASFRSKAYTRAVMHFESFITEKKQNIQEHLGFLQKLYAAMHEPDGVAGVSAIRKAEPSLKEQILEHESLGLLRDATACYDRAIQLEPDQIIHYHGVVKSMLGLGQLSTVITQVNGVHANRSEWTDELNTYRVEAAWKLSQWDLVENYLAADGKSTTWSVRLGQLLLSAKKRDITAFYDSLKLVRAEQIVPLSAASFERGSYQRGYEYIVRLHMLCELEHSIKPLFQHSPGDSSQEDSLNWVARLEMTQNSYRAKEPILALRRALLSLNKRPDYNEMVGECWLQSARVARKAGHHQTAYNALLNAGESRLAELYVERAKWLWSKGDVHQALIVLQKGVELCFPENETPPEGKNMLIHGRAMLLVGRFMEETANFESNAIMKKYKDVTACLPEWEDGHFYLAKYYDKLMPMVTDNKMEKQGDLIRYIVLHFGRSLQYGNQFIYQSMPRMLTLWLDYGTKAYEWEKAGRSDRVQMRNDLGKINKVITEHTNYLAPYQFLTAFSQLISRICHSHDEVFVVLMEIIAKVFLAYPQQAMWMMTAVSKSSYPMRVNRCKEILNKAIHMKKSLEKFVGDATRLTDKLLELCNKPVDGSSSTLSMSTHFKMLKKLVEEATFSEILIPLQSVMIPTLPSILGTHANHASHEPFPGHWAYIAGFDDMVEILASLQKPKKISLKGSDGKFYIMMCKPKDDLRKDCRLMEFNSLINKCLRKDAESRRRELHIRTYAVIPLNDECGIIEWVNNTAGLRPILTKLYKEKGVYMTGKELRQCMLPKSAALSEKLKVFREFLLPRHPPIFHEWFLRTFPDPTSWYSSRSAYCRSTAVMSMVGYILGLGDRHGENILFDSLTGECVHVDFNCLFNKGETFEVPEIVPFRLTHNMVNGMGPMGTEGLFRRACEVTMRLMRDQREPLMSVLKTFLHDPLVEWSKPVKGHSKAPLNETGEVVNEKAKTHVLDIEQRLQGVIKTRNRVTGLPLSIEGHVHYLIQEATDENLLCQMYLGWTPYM
T2 sequence (Q8WXE1 whole entry partner): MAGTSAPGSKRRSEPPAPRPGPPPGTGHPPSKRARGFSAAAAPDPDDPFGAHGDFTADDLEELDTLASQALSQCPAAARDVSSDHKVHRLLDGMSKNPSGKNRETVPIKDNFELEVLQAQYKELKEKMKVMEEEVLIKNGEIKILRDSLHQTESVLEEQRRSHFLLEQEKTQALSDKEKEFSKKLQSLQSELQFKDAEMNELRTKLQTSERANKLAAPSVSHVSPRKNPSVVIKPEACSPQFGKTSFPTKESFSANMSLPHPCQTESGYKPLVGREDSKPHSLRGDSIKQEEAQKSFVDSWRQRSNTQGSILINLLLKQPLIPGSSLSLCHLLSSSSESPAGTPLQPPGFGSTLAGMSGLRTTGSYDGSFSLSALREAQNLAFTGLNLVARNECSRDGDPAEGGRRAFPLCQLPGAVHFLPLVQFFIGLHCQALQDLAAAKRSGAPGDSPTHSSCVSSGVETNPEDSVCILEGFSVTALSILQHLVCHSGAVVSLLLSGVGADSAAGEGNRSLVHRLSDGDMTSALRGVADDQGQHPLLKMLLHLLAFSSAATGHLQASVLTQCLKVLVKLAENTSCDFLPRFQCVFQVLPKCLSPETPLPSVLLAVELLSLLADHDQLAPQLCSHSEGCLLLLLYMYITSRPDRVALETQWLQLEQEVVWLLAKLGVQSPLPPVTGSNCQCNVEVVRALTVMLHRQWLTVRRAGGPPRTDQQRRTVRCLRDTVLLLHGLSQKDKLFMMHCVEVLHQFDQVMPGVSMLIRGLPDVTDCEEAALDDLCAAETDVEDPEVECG
T29 sequence (P11309 whole entry): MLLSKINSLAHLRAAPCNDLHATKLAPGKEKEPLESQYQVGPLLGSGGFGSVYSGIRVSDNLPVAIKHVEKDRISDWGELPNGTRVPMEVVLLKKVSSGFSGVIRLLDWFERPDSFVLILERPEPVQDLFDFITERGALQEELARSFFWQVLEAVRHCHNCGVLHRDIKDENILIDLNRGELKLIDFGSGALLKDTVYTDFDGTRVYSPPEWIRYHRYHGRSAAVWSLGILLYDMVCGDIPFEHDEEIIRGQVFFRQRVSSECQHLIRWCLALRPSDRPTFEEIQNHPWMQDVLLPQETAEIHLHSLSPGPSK

Q: For `O=C(N/N=C1\CCc2c(Cl)ccc(O)c21)c1cccc(S(=O)(=O)N2CCOCC2)c1` [ZY0511, (E)‐N'‐(2, 3‐dihydro‐1H‐inden‐1‐ylidene) benzohydrazides], which IC50 [1] is on record?
A: 9.8 µM

Q: What about the IC50 [2] of the same molecule?
A: 9.59 µM

Q: What about the inhibition at 1 µM [2, 38] of the same molecule?
A: 62%

Q: What about the inhibition at 1 µM [3] of the same molecule?
A: 13%

Q: And the inhibition at 1 µM [4]?
A: 17%

Q: What about the activation at 1 µM [5] of the same molecule?
A: 3%

Q: And the inhibition at 1 µM [6]?
A: 29%

Q: And the activation at 1 µM [7]?
A: 3%

Q: And the inhibition at 1 µM [8]?
A: 10%

Q: And the inhibition at 1 µM [9]?
A: 13%

Q: What about the inhibition at 1 µM [10] of the same molecule?
A: 21%

Q: What about the inhibition at 1 µM ([11]; DNA-PK, ZY0511 1 µM, read-out: Inhibition rate) of the same molecule?
A: 60%

Q: And the IC50 ([11]; DNA‐PK)?
A: > 10 µM

Q: What about the inhibition at 1 µM [12] of the same molecule?
A: 5%

Q: And the Activation rate [13]?
A: 5%

Q: And the inhibition at 1 µM [14]?
A: 2%

Q: What about the activation at 1 µM [15] of the same molecule?
A: 5%

Q: And the inhibition at 1 µM [16]?
A: 47%

Q: And the inhibition at 1 µM [17]?
A: 8%

Q: What about the IC50 [18] of the same molecule?
A: > 10 µM

Q: And the inhibition at 1 µM [18, 38]?
A: 62%

Q: What about the activation at 1 µM [19] of the same molecule?
A: 1%

Q: And the inhibition at 1 µM [20]?
A: 6%

Q: And the activation at 1 µM [21]?
A: 2%

Q: And the activation at 1 µM [22]?
A: 33%

Q: What about the inhibition at 1 µM [23] of the same molecule?
A: 2%

Q: What about the inhibition at 1 µM [24] of the same molecule?
A: 6%

Q: And the inhibition at 1 µM [25]?
A: 4%

Q: What about the inhibition at 1 µM [26] of the same molecule?
A: 8%

Q: And the activation at 1 µM [27]?
A: 2%

Q: And the inhibition at 1 µM [28]?
A: 3%

Q: And the inhibition at 1 µM [29]?
A: 15%

Q: And the inhibition at 1 µM [30]?
A: 4%

Q: And the activation at 1 µM [31]?
A: 3%

Q: What about the activation at 1 µM [32] of the same molecule?
A: 11%

Q: And the inhibition at 1 µM [33]?
A: 43%

Q: And the activation at 1 µM [34]?
A: 4%

Q: What about the inhibition at 1 µM [35] of the same molecule?
A: 11%

Q: What about the “blood routine indexes (red blood cell, white blood cell, lymph cell)” value ([36]; 400 mg/kg i.p., day 14) of the same molecule?
A: did not change

Q: And the “liver and kidney function indexes (ALT, AST, creatinine)” value ([36]; 400 mg/kg i.p., day 14)?
A: did not change

Q: What about the “pathology of main organs (heart, liver, spleen, lung, kidney)” value ([36]; 400 mg/kg i.p., day 14, H&E) of the same molecule?
A: No pathological abnormality

Q: And the “no observed adverse effect level” value ([36]; mice, i.p.)?
A: 400 mg/kg

Q: What about the “inhibition rate of EdU‐positive cells” value [37] of the same molecule?
A: 99.9%
